Results taken from patent publication US20230357269A1 (LES LABORATOIRES SERVIER, priority 2020, published 2023).

The compounds below were run against human recombinant LRRK2 protein (Homo sapiens (Human), UniProt Q5S007) (assay: LRRK2 Kinase Activity Assay (ADP-Glo)). Settings: LRRK2 wt; LRRKtide peptide and ATP substrates; 1h-incubation at 37° C.
Sequence of human recombinant LRRK2 protein (Q5S007 whole entry): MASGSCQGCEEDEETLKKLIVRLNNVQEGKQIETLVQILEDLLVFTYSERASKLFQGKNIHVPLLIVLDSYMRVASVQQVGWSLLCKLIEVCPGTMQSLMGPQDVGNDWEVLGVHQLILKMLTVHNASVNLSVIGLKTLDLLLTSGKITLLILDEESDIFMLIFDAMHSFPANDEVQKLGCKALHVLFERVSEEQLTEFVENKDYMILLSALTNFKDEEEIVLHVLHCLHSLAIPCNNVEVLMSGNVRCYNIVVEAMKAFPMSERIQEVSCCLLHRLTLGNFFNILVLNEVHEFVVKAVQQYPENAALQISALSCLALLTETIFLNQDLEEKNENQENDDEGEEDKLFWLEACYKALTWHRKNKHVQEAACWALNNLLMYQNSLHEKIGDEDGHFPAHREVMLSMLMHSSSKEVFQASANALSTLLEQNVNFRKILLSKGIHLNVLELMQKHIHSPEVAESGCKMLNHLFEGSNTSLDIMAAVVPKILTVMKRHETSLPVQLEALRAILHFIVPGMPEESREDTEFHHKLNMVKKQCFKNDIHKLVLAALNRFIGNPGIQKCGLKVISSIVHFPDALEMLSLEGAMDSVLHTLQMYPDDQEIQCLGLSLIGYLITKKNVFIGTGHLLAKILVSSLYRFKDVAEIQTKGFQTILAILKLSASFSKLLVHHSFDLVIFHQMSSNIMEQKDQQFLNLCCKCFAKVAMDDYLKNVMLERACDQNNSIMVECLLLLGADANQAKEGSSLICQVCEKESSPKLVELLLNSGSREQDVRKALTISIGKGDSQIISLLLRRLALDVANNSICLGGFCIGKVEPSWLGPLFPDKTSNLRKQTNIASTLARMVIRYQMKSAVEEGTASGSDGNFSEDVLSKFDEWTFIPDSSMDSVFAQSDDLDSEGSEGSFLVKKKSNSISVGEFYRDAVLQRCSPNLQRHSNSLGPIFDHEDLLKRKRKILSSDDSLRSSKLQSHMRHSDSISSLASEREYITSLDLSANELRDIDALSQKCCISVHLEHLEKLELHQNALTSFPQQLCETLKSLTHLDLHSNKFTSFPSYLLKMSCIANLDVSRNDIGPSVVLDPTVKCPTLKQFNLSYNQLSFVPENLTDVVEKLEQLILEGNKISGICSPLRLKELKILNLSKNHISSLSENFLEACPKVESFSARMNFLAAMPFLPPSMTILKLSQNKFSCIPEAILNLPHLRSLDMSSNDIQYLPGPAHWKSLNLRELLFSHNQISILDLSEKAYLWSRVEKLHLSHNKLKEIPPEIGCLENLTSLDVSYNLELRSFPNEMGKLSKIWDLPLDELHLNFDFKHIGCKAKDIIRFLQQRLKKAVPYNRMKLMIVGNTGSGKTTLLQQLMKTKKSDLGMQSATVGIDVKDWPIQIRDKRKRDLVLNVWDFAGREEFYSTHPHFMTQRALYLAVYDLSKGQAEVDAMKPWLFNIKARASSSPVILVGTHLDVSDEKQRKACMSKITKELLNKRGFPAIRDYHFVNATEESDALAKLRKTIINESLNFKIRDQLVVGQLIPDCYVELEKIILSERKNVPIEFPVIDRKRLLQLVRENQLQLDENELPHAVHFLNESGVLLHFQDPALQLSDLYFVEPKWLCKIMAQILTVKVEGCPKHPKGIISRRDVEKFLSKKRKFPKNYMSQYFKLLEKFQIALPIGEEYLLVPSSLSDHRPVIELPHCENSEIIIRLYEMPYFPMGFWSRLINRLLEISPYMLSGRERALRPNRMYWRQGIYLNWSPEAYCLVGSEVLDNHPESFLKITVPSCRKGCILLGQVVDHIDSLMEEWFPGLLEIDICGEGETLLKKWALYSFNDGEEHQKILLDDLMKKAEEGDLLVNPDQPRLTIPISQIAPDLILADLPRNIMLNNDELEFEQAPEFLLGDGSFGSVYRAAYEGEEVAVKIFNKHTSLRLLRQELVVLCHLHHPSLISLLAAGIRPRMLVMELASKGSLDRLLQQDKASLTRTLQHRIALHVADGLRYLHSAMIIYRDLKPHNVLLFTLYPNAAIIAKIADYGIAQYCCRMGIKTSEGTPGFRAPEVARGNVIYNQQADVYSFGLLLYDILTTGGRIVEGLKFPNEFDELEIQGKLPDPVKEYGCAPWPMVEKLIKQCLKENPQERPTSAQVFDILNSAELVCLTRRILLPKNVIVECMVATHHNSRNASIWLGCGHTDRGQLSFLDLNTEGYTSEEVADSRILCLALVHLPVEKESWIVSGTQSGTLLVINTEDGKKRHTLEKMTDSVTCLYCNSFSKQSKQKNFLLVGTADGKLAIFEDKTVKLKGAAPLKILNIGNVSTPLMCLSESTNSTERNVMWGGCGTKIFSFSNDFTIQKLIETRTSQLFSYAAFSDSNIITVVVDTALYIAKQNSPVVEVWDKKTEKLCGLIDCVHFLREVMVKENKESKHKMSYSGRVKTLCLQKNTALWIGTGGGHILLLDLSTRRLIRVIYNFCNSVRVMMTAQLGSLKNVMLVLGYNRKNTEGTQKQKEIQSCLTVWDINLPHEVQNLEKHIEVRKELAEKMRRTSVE
Type: biochemical
Procedure, shortened: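 Recombinant human LRRK2 acted on LRRKtide peptide and ATP for 1 h at 37 °C. ADP formed was detected by ADP-Glo luminescence (ATP depletion, then ADP-to-ATP conversion and luciferase). IC50s came from curve fits over 10 concentrations (N=2).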
With CC1CCOc2ccc3[nH]nc(c3c2)-c2cnn(c2)CCOC(=O)N1 (stereo not drawn) [Example 85, 11-methyl-8,14-dioxa-4,5,10,19,20-pentaazatetracyclo[13.5.2.1^2,5.0^18,21]tricosa-1(20),2(23),3,15(22),16,18(21)-hexaen-9-one] the IC50 was 10 to 100 nM. CC1CNC(=O)OCc2cccc(c2)-c2n[nH]c3ccc(cc23)OC1 (stereo not drawn) [Example 86, 12-methyl-8,14-dioxa-10,19,20-triazatetracyclo[13.5.2.1^2,6.0^18,21]tricosa-1(20),2(23),3,5,15(22),16,18(21)-heptaen-9-one] gave an IC50 of less than 10 nM. Compound CCC1CCOc2ccc3[nH]nc(c3c2)-c2cccc(c2)COC(=O)N1 (stereo not drawn) [Example 87, 11-ethyl-8,14-dioxa-10,19,20-triazatetracyclo[13.5.2.1^2,6.0^18,21]tricosa-1(20),2(23),3,5,15(22),16,18(21)-heptaen-9-one] has an IC50 of less than 10 nM. Cc1c(F)cc2cc1C(C)OC(=O)NCCCOc1ccc3[nH]nc-2c3c1 (stereo not drawn) [Example 88, 4-fluoro-5,7-dimethyl-8,14-dioxa-10,19,20-triazatetracyclo[13.5.2.1^2,6.0^18,21]tricosa-1(20),2(23),3,5,15(22),16,18(21)-heptaen-9-one] showed an IC50 of 10 to 100 nM. For COc1c(F)cc2cc1C(C)OC(=O)NCCCOc1ccc3[nH]nc-2c3c1 (stereo not drawn) [Example 89, 4-fluoro-5-methoxy-7-methyl-8,14-dioxa-10,19,20-triazatetracyclo[13.5.2.1^2,6.0^18,21]tricosa-1(20),2(23),3,5,15(22),16,18(21)-heptaen-9-one], the IC50 was 100 to 1000 nM. Cc1cc2cc(c1F)C(C)OC(=O)NCCCOc1ccc3[nH]nc-2c3c1 (stereo not drawn) [Example 90, 5-fluoro-4,7-dimethyl-8,14-dioxa-10,19,20-triazatetracyclo[13.5.2.1^2,6.0^18,21]tricosa-1(20),2(23),3,5,15(22),16,18(21)-heptaen-9-one] was tested, and the IC50 was less than 10 nM. For O=C1OC2CN1CCCOc1ccc3[nH]nc(c3c1)-c1cccc2c1 (stereo not drawn) [Example 91, 8,14-dioxa-10,19,20-triazapentacyclo[13.5.2.1^2,6.1^7,10.0^18,21]tetracosa-1(20),2(24),3,5,15(22),16,18(21)-heptaen-9-one], the IC50 was less than 10 nM. Work on CC1CCNC(=O)OCc2cccc(n2)-c2n[nH]c3ccc(cc23)O1 (stereo not drawn) [Example 92, 13-methyl-8,14-dioxa-10,19,20,23-tetraazatetracyclo[13.5.2.1^2,6.0^18,21]tricosa-1(20),2(23),3,5,15(22),16,18(21)-heptaen-9-one] yielded an IC50 of less than 10 nM. For CC1CNC(=O)OCCn2cc(cn2)-c2n[nH]c3ccc(cc23)OC1 (stereo not drawn) [Example 93, 12-methyl-8,14-dioxa-4,5,10,19,20-pentaazatetracyclo[13.5.2.1^2,5.0^18,21]tricosa-1(20),2(23),3,15(22),16,18(21)-hexaen-9-one], the IC50 was less than 10 nM. CC1Cn2cc(cn2)-c2n[nH]c3ccc(cc23)OCCCNC(=O)O1 (stereo not drawn) [Example 94, 7-methyl-8,14-dioxa-4,5,10,19,20-pentaazatetracyclo[13.5.2.1^2,5.0^18,21]tricosa-1(20),2(23),3,15(22),16,18(21)-hexaen-9-one] showed an IC50 of less than 10 nM. In the case of COc1cc2cc(c1F)C(C)OC(=O)NCCCOc1ccc3[nH]nc-2c3c1 (stereo not drawn) [Example 95, 5-fluoro-4-methoxy-7-methyl-8,14-dioxa-10,19,20-triazatetracyclo[13.5.2.1^2,6.0^18,21]tricosa-1(20),2(23),3,5,15(22),16,18(21)-heptaen-9-one], the IC50 is reported as less than 10 nM. For C[C@@H]1CCNC(=O)O[C@H](C)c2cccc(c2)-c2n[nH]c3ccc(cc23)O1 [Example 96, (7R,13R)-7,13-dimethyl-8,14-dioxa-10,19,20-triazatetracyclo[13.5.2.1^2,6.0^18,21]tricosa-1(20),2(23),3,5,15(22),16,18(21)-heptaen-9-one], the IC50 was less than 10 nM. With C[C@@H]1CCNC(=O)OCCn2cc(cn2)-c2n[nH]c3ccc(cc23)O1 [Example 97, (13R)-13-methyl-8,14-dioxa-4,5,10,19,20-pentaazatetracyclo[13.5.2.1^2,5.0^18,21]tricosa-1(20),2(23),3,15,17,21-hexaen-9-one] the IC50 was less than 10 nM. Compound O=C1OCc2cncc(c2)-c2n[nH]c3ccc(cc23)OCC2CCN1C2 (stereo not drawn) [Example 98, 8,15-dioxa-4,10,20,21-tetraazapentacyclo[14.5.2.1^2,6.1^10,13.0^19,22]pentacosa-1(21),2(25),3,5,16(23),17,19(22)-heptaen-9-one] has an IC50 of less than 10 nM. Work on O=C1NCCCOc2ccc3[nH]nc(c3c2)-c2ccn(c2)CCO1 [Example 99, 8,14-dioxa-5,10,19,20-tetraazatetracyclo[13.5.2.1^2,5.0^18,21]tricosa-1(20),2(23),3,15(22),16,18(21)-hexaen-9-one] yielded an IC50 of less than 10 nM. With C[C@@H]1CCNC(=O)OCc2cncc(c2)-c2n[nH]c3ccc(cc23)O1 [Example 102, (13R)-13-methyl-8,14-dioxa-4,10,19,20-tetraazatetracyclo[13.5.2.1^2,6.0^18,21]tricosa-1(20),2(23),3,5,15(22),16,18(21)-heptaen-9-one] the IC50 was less than 10 nM. O=C1NCCCOc2ccc3[nH]nc(c3c2)-c2cnn(c2)C(C2CC2)CO1 (stereo not drawn) [Example 103, 6-cyclopropyl-8,14-dioxa-4,5,10,19,20-pentaazatetracyclo[13.5.2.1^2,5.0^18,21]tricosa-1(20),2(23),3,15(22),16,18(21)-hexaen-9-one] was tested, and the IC50 was less than 10 nM. In the case of CCC1OC(=O)NCCCOc2ccc3[nH]nc(c3c2)-c2cccc1c2 (stereo not drawn) [Example 104, 7-ethyl-8,14-dioxa-10,19,20-triazatetracyclo[13.5.2.1^2,6.0^18,21]tricosa-1(20),2,4,6(23),15,17,21-heptaen-9-one], the IC50 is reported as 10 to 100 nM. C[C@@H]1CCNC(=O)OCc2nccc(n2)-c2n[nH]c3ccc(cc23)O1 [Example 105, (13R)-13-methyl-8,14-dioxa-5,10,19,20,23-pentaazatetracyclo[13.5.2.1^2,6.0^18,21]tricosa-1(20),2,4,6(23),15,17,21-heptaen-9-one] showed an IC50 of less than 10 nM. C[C@@H]1CCNC(=O)O[C@H](C)c2cc(F)cc(c2)-c2n[nH]c3ccc(cc23)O1 [Example 106, (7R,13R)-4-fluoro-7,13-dimethyl-8,14-dioxa-10,19,20-triazatetracyclo[13.5.2.1^2,6.0^18,21]tricosa-1(20),2,4,6(23),15,17,21-heptaen-9-one] gave an IC50 of less than 10 nM. With CC1OC(=O)NCCCOc2ccc3[nH]nc(c3c2)-c2cncc1c2 (stereo not drawn) [Example 107, 7-methyl-8,14-dioxa-4,10,19,20-tetraazatetracyclo[13.5.2.1^2,6.0^18,21]tricosa-1(20),2,4,6(23),15,17,21-heptaen-9-one] the IC50 was less than 10 nM. Compound CC1COC(=O)NCCCOc2ccc3[nH]nc(c3c2)-c2cnn1c2 (stereo not drawn) [Example 110, 6-methyl-8,14-dioxa-4,5,10,19,20-pentaazatetracyclo[13.5.2.1^2,5.0^18,21]tricosa-1(20),2(23),3,15,17,21-hexaen-9-one] has an IC50 of less than 10 nM. CC1OC(=O)NCCCOc2ccc3[nH]nc(c3c2)-c2cccc1n2 (stereo not drawn) [Example 111, 7-methyl-8,14-dioxa-10,19,20,23-tetraazatetracyclo[13.5.2.1^2,6.0^18,21]tricosa-1(20),2,4,6(23),15,17,21-heptaen-9-one] was tested, and the IC50 was 10 to 100 nM. CC(C)C1COC(=O)NCCCOc2ccc3[nH]nc(c3c2)-c2cnn1c2 (stereo not drawn) [Example 112, 6-(propan-2-yl)-8,14-dioxa-4,5,10,19,20-pentaazatetracyclo[13.5.2.1^2,5.0^18,21]tricosa-1(20),2(23),3,15(22),16,18(21)-hexaen-9-one] gave an IC50 of 10 to 100 nM.
